Data on 2 compounds can be found in patent US6958142B2, “Nasal spray formulation and method” (Balance Pharmaceuticals, Inc., priority 2002, dated 2005).

The structures appear in SMILES notation. Converted amounts (≈) assume the structure as drawn. “And” between values parts separate entries of the source, which are not always exact repeats. Identical values can stand only once. Like-named read-outs stand apart in the source and are kept apart here.

One data set in a line: physchem. The conditions noted are these: aqueous with cosolvent or surfactant or cyclodextrin, thermodynamic from solid.
The nature of data set [1]: Serum testosterone average concentration over 24 hours after intranasal testosterone.
Experimental: In another study, five women were treated with intranasal testosterone.
The conditions of data set [2]: at 25° C.; cited from earlier work.

As usually defined, the solubility is the dissolved amount per volume that the medium holds. Read a high solubility as a readily soluble substance. Regarding `C[C@]12CC[C@H]3[C@@H](CCC4=CC(=O)CC[C@@]43C)[C@@H]1CC[C@@H]2O` [Testosterone, testosterone], the “Molar Ratio steroid/HPβCD” value amounted to 0.31 (both steroids together, HPβCD 10 mg/mL); 0.34 (both steroids together, HPβCD 40 mg/mL); 0.35 (both steroids together, HPβCD 70 mg/mL); 0.34 (both steroids together, HPβCD 100 mg/mL); 0.39 (both steroids together, HPβCD 130 mg/mL); 0.40 (both steroids together, HPβCD 160 mg/mL). Also, the “Molar Ratio steroid/HPβCD” value runs as follows: (both steroids together, HPβCD 190 mg/mL) 0.40; (both steroids together, HPβCD 250 mg/mL) 0.38; (steroid alone, HPβCD 10 mg/mL) 0.39; (steroid alone, HPβCD 40 mg/mL) 0.30; (steroid alone, HPβCD 70 mg/mL) 0.38; (steroid alone, HPβCD 100 mg/mL) 0.33. Besides, the “Molar Ratio steroid/HPβCD” value runs as follows: (steroid alone, HPβCD 130 mg/mL) 0.43; (steroid alone, HPβCD 160 mg/mL) 0.41; (steroid alone, HPβCD 190 mg/mL) 0.42; (steroid alone, HPβCD 220 mg/mL) 0.40; (steroid alone, HPβCD 250 mg/mL) 0.41. Further, the solubility stood at 0.658 mg/mL (≈ 2.28 mM) in the data set “physchem” (Estradiol and Testosterone solubility, both steroids together in aqueous HPβCD 10 mg/mL); 2.82 mg/mL (≈ 9.77 mM) in “physchem” (Estradiol and Testosterone solubility, both steroids together in aqueous HPβCD 40 mg/mL); 5.07 mg/mL (≈ 17.6 mM) in the data set “physchem” (Estradiol and Testosterone solubility, both steroids together in aqueous HPβCD 70 mg/mL); 7.11 mg/mL (≈ 24.7 mM) in “physchem” (Estradiol and Testosterone solubility, both steroids together in aqueous HPβCD 100 mg/mL); 10.6 mg/mL (≈ 36.6 mM) in “physchem” (Estradiol and Testosterone solubility, both steroids together in aqueous HPβCD 130 mg/mL); 13.4 mg/mL (≈ 46.5 mM) in “physchem” (Estradiol and Testosterone solubility, both steroids together in aqueous HPβCD 160 mg/mL). In addition, the solubility was 15.7 mg/mL (≈ 54.6 mM) in the data set “physchem” (Estradiol and Testosterone solubility, both steroids together in aqueous HPβCD 190 mg/mL); 20 mg/mL (≈ 69.3 mM) in the data set “physchem” (Estradiol and Testosterone solubility, both steroids together in aqueous HPβCD 250 mg/mL); 0.81 mg/mL (≈ 2.81 mM) in the data set “physchem” (solubility, steroid alone in aqueous HPβCD 10 mg/mL); 2.54 mg/mL (≈ 8.81 mM) in the data set “physchem” (solubility, steroid alone in aqueous HPβCD 40 mg/mL); 5.63 mg/mL (≈ 19.5 mM) in “physchem” (solubility, steroid alone in aqueous HPβCD 70 mg/mL); 6.82 mg/mL (≈ 23.6 mM) in the data set “physchem” (solubility, steroid alone in aqueous HPβCD 100 mg/mL). The solubility in the data set “physchem” (solubility, steroid alone in aqueous HPβCD 130 mg/mL) came out at 11.6 mg/mL (≈ 40.4 mM); in the data set “physchem” (solubility, steroid alone in aqueous HPβCD 160 mg/mL), 13.9 mg/mL (≈ 48.1 mM); in the data set “physchem” (solubility, steroid alone in aqueous HPβCD 190 mg/mL) it was 16.5 mg/mL (≈ 57.3 mM); in the data set “physchem” (solubility, steroid alone in aqueous HPβCD 220 mg/mL), 18.6 mg/mL (≈ 64.5 mM); in “physchem” (solubility, steroid alone in aqueous HPβCD 250 mg/mL), 21.7 mg/mL (≈ 75.2 mM). Moreover, the “Testosterone average concentration over 24 hours” value was 26.7 ng/dL (2×) and 19.0 ng/dL and 18.8 ng/dL and 19.1 ng/dL in data set [1] (intranasal 250 μg testosterone in preparation with deslorelin and estradiol, Day 1, individual subjects); 29.9 ng/dL and 17.1 ng/dL and 16.5 ng/dL and 16.2 ng/dL and 24.1 ng/dL in data set [1] (intranasal 250 μg testosterone in preparation with deslorelin and estradiol, Day 8, individual subjects); 21.4 ng/dL in data set [1] (intranasal 250 μg testosterone, average of both observations (Day 1, Day 8) in each of the 5 subjects).
Regarding `OC[C@H]1O[C@@H]2O[C@H]3[C@H](O)[C@@H](O)[C@@H](O[C@H]4[C@H](O)[C@@H](O)[C@@H](O[C@H]5[C@H](O)[C@@H](O)[C@@H](O[C@H]6[C@H](O)[C@@H](O)[C@@H](O[C@H]7[C@H](O)[C@@H](O)[C@@H](O[C@H]8[C@H](O)[C@@H](O)[C@@H](O[C@H]9[C@H](O)[C@@H](O)[C@@H](O[C@H]%10[C@H](O)[C@@H](O)[C@@H](O[C@H]1[C@H](O)[C@H]2O)O[C@@H]%10CO)O[C@@H]9CO)O[C@@H]8CO)O[C@@H]7CO)O[C@@H]6CO)O[C@@H]5CO)O[C@@H]4CO)O[C@@H]3CO` [δ-cyclodextrin], in data set [2], the water solubility is on record as 8.19 g/100 mL.
